Measurements taken from PMC5844530, “Fosmetpantotenate (RE-024), a phosphopantothenate replacement therapy for pantothenate kinase-associated neurodegeneration: Mechanism of action and efficacy in nonclinical models” (PLoS ONE, 2018).
Several values for one entry are separate records, joined by “and”; a condition that tells them apart may be missing. Equal values may be shown once.

Legend:
[1] = Pharmacokinetics in whole blood, CD-1 mice; conditions: male, CD-1, mouse, in vivo, blood
[2] = Metabolic stability in mouse whole blood; type: in vitro ADME; conditions: for Percentage Remaining: mouse whole blood, replicates 1 and 2, listed as Fosmetpantotenate Total
Description: Metabolic stability in blood and liver microsomes: Fosmetpantotenate or its individual diastereomers (5 μM, n = 2, 37°C) were incubated in mouse, rat, cynomolgus monkey, and human whole blood. Samples (50 μL) were taken at 0, 5, 15, 30, and 60 min. Incubations of fosmetpantotenate or its individual diastereomers (1 μM, n = 2, 37°C) in pooled liver microsomes (0.25 mg protein/mL in 0.1 M phosphate buffer pH 7.4) were initiated with the addition of nicotinamide adenine dinucleotide phosphate (NADPH; 1 mM). Aliquots (100 μL) were obtained at 0, 5, 10, 20, and 40 min and added to 150 μL of 0.1% formic acid in acetonitrile-containing carbamazepine (0.5 μM) as an analytical internal standard, centrifuged, and the supernatants analyzed by LC-MS/MS.
Bioanalysis for determinations of analyte stability: Samples were analyzed using a benchtop tandem quadrupole detector (TQD) mass spectrometer (Waters Ltd, Centennial Park, Hertfordshire). […] Suitable retention and peak shape with separation of the 2 diastereomers were obtained. The chromatography column was a Phenomenex-Kinetex XB C18 (2.10 x 50 mm; 2.6 μm), with a 0.7 mL/min flow rate and a 2 μL injection volume. […] The gradient was initiated with 20% B and increased linearly, reaching 40% B at 0.6 min, followed by 50% B at 0.8 min and by 95% B at 0.9 min. Conditions were kept isocratic through 1.2 min, returned to starting conditions (20% B) at 1.25 min, and maintained at 20% B through 1.5 min before the next injection. Since fosmetpantotenate is a mixture of diastereomers which are resolved chromatographically, the fosmetpantotenate MRM area corresponds to the sum of the MRM areas of the individual diastereomers.
The percent of compound remaining was determined from the MRM area response in each sample relative to that in the T = 0 samples (normalized for internal standard). Natural log plots of the percent compound remaining over time were used to determine the t½ of compound disappearance using the relationship t½ = -0.693/λ, where λ is the slope of the natural logarithm of the percent compound remaining vs time curve.

[3] = Pharmacokinetics in whole blood, Sprague-Dawley rats; conditions: male Sprague-Dawley rats, blood, BQL <1.26 nM
Description: The whole blood samples (0.5 mL) were collected into syringes that were prefilled with 2.5 mL of ice-cold 0.1% formic acid in acetonitrile. The volume ratio of the whole blood to 0.1% formic acid in acetonitrile was 1/5 (v/v). Samples were frozen (-70°C) until analyzed by LC-MS/MS.
Standard curves and quality control (QC) samples were prepared fresh on the day of analysis by serial dilution of the standard mixture in quenched whole blood (1 part of blood to 5 parts of 0.1% formic acid in acetonitrile) and centrifuged. […] The frozen study samples were thawed in an ice/water bath and centrifuged. Supernatant (50 μL) from standards, QC samples, and study samples was transferred to a 96-well plate and dried completely under nitrogen. The dried residues were reconstituted with 100 μL of 0.1% formic acid in water containing internal standard (5 ng/mL of ^15N/^13C3-RE-024-02) and analyzed by LC-MS/MS.
LC-MS/MS analysis for blood pharmacokinetic samples: Samples were analyzed using an Agilent 1100 binary pump (Agilent Technologies, Santa Clara, CA, USA), connected to an AB Sciex API 6500 mass spectrometer (SCIEX, Framingham, MA, USA). An electrospray ionization source was used, scanning in the positive mode. […] The chromatography column was a Varian Metasil AQ 120–5 C18 column, 5 μm, 50 x 2.00 mm (Part No. A0530050X020) at ambient temperature, with a 0.5 mL/min flow rate and a 20 μL injection volume. Mobile phase (A) consisted of 0.1% formic acid in water; while mobile phase (B) consisted of 0.1% formic acid in acetonitrile:water (9:1, v/v).
Quantitation of in vivo samples: Peak areas were integrated using Analyst software (AB Sciex, Concord, Ontario, Canada). […] Calibration standards (at a minimum 7 per curve) were fit by linear regression with (1/x^2) weighting. QC samples were used (triplicate) at 3 concentrations for all tandem mass spectrometry (MS/MS) runs.
Pharmacokinetic calculations: PK analysis was performed using Phoenix WinNonlin®, Build 6.3.0.395 (Certara, Princeton, NJ, USA) using a non-compartmental model (PO dose = model 200 for extravascular dosing). […] Post-dose concentrations below the limit of quantitation (BLQ) were omitted from calculation.

[4] = 300 mg/kg, Mean Conc., fosmetpantotenate 300 mg/kg PO
[5] = 700 mg/kg, Fosmetpantotenate Conc., male CD-1 mice, fosmetpantotenate 700 mg/kg oral, individual animals, BQL <1.02 nM
[6] = 700 mg/kg, Fosmetpantotenate Mean Conc., male CD-1 mice, fosmetpantotenate 700 mg/kg oral, mean, BQL <1.02 nM

## COC(=O)CCNC(=O)[C@H](O)C(C)(C)COP(=O)(N[C@@H](C)C(=O)OC)Oc1ccccc1 (mixture of isomers) [Fosmetpantotenate]
[1]; 300 mg/kg, Conc., fosmetpantotenate 300 mg/kg PO, individual animals
  concentration at 4 h: 1.03 nM
[1]; [4]
  concentration at 0.033 h: 30.2 nM
  concentration at 0.083 h: 14.4 nM
  concentration at 0.167 h: 2.3 nM
  concentration at 0.333 h: 1.22 nM
  concentration at 0.5 h: 1.36 nM
  concentration at 1 h: 1.14 nM
  concentration at 4 h: 1.03 nM
[1]; [5]
  concentration at 0.333 h: 24.4 nM
  concentration at 4 h: 1.14 nM
[1]; [6]
  concentration at 0.033 h: 135 nM
  concentration at 0.083 h: 16.2 nM
  concentration at 0.167 h: 307 nM
  concentration at 0.333 h: 23.6 nM
  concentration at 0.5 h: 78.7 nM
  concentration at 1 h: 51.6 nM
  concentration at 4 h: 1.14 nM
[1]; 700 mg/kg, Fosmetpantotenate Mean Conc., male CD-1 mice, fosmetpantotenate 700 mg/kg oral, 2 hr, mean, BQL <1.02 nM
  concentration at 2 h: 5.11 nM
[2]; mouse blood, 5 μM, 37°C, 60 min
  half-life at 5 μM: < 5 min
[2]; 5 min
  Percentage Remaining: 1%
[2]; 15 min
  Percentage Remaining: 1%
[3]; fosmetpantotenate 100 mg/kg oral, 0.033 hr, individual animals
  Fosmetpantotenate Conc.: BQL
[3]; fosmetpantotenate 100 mg/kg oral, 0.033 hr, mean
  Fosmetpantotenate Mean Conc.: BQL
[3]; fosmetpantotenate 100 mg/kg oral, 0.083 hr, individual animals
  Fosmetpantotenate Conc.: BQL
[3]; fosmetpantotenate 100 mg/kg oral, 0.083 hr, mean
  Fosmetpantotenate Mean Conc.: BQL
[3]; fosmetpantotenate 100 mg/kg oral, 0.167 hr, individual animals
  Fosmetpantotenate Conc.: BQL
[3]; fosmetpantotenate 100 mg/kg oral, 0.167 hr, mean
  Fosmetpantotenate Mean Conc.: BQL
[3]; fosmetpantotenate 100 mg/kg oral, 0.33 hr, individual animals
  Fosmetpantotenate Conc.: BQL
[3]; fosmetpantotenate 100 mg/kg oral, 0.33 hr, mean
  Fosmetpantotenate Mean Conc.: BQL
[3]; fosmetpantotenate 100 mg/kg oral, 0.5 hr, individual animals
  Fosmetpantotenate Conc.: BQL
[3]; fosmetpantotenate 100 mg/kg oral, 1 hr, individual animals
  Fosmetpantotenate Conc.: BQL
[3]; fosmetpantotenate 100 mg/kg oral, 1 hr, mean
  Fosmetpantotenate Mean Conc.: BQL
[3]; fosmetpantotenate 100 mg/kg oral, 2 hr, individual animals
  Fosmetpantotenate Conc.: BQL
[3]; fosmetpantotenate 100 mg/kg oral, 2 hr, mean
  Fosmetpantotenate Mean Conc.: BQL
[3]; fosmetpantotenate 100 mg/kg oral, 4 hr, individual animals
  Fosmetpantotenate Conc.: BQL
[3]; fosmetpantotenate 100 mg/kg oral, 8 hr, individual animals
  Fosmetpantotenate Conc.: BQL
[3]; fosmetpantotenate 100 mg/kg oral, 8 hr, mean
  Fosmetpantotenate Mean Conc.: BQL
[3]; fosmetpantotenate 300 mg/kg oral, 0.033 hr, individual animals
  Fosmetpantotenate Conc.: 4.15 nM and BQL
[3]; fosmetpantotenate 300 mg/kg oral, 0.083 hr, individual animals
  Fosmetpantotenate Conc.: BQL
[3]; fosmetpantotenate 300 mg/kg oral, 0.083 hr, mean
  Fosmetpantotenate Mean Conc.: BQL
[3]; fosmetpantotenate 300 mg/kg oral, 0.167 hr, individual animals
  Fosmetpantotenate Conc.: 8.83 nM and 22.89 nM and 22.51 nM
[3]; fosmetpantotenate 300 mg/kg oral, 0.33 hr, individual animals
  Fosmetpantotenate Conc.: BQL and 64.88 nM and 7.67 nM
[3]; fosmetpantotenate 300 mg/kg oral, 0.5 hr, individual animals
  Fosmetpantotenate Conc.: 2.28 nM and BQL and 577.94 nM
[3]; fosmetpantotenate 300 mg/kg oral, 1 hr, individual animals
  Fosmetpantotenate Conc.: BQL
[3]; fosmetpantotenate 300 mg/kg oral, 2 hr, individual animals
  Fosmetpantotenate Conc.: BQL
[3]; fosmetpantotenate 300 mg/kg oral, 4 hr, individual animals
  Fosmetpantotenate Conc.: BQL
[3]; fosmetpantotenate 300 mg/kg oral, 8 hr, individual animals
  Fosmetpantotenate Conc.: BQL
[3]; fosmetpantotenate 300 mg/kg oral, 8 hr, mean
  Fosmetpantotenate Mean Conc.: BQL
[3]; fosmetpantotenate 700 mg/kg oral, 0.033 hr, individual animals
  Fosmetpantotenate Conc.: 2149.90(a) nM and BQL and 114.07 nM
[3]; fosmetpantotenate 700 mg/kg oral, 0.083 hr, individual animals
  Fosmetpantotenate Conc.: 518.51 nM and BQL and 1.62 nM
[3]; fosmetpantotenate 700 mg/kg oral, 0.167 hr, individual animals
  Fosmetpantotenate Conc.: 28.96 nM and 23269.54(a) nM and 247.87 nM
[3]; fosmetpantotenate 700 mg/kg oral, 0.33 hr, individual animals
  Fosmetpantotenate Conc.: 2541.94 nM and 1277.3 nM and 54 nM
[3]; fosmetpantotenate 700 mg/kg oral, 0.5 hr, individual animals
  Fosmetpantotenate Conc.: 509.65 nM and 72.84 nM and 84.61 nM
[3]; fosmetpantotenate 700 mg/kg oral, 1 hr, individual animals
  Fosmetpantotenate Conc.: 73.35 nM and 63.86 nM and 214.99 nM
[3]; fosmetpantotenate 700 mg/kg oral, 2 hr, individual animals
  Fosmetpantotenate Conc.: BQL and 1035.75 nM
[3]; fosmetpantotenate 700 mg/kg oral, 4 hr, individual animals
  Fosmetpantotenate Conc.: 419.86 nM and BQL and 32.12 nM
[3]; fosmetpantotenate 700 mg/kg oral, 8 hr, individual animals
  Fosmetpantotenate Conc.: BQL
[3]; fosmetpantotenate 700 mg/kg oral, 8 hr, mean
  Fosmetpantotenate Mean Conc.: BQL
[3]; male, Sprague-Dawley, rat, in vivo, 100 mg/kg, Fosmetpantotenate Conc., fosmetpantotenate 100 mg/kg oral, 0.5 hr, individual animals
  concentration at 0.5 h: 3.31 nM
[3]; male, Sprague-Dawley, rat, in vivo, 100 mg/kg, Fosmetpantotenate Conc., fosmetpantotenate 100 mg/kg oral, 4 hr, individual animals
  concentration at 4 h: 2.04 nM
[3]; male, Sprague-Dawley, rat, in vivo, 100 mg/kg, Fosmetpantotenate Mean Conc., fosmetpantotenate 100 mg/kg oral, 0.5 hr, mean
  concentration at 0.5 h: 3.31 nM
[3]; male, Sprague-Dawley, rat, in vivo, 100 mg/kg, Fosmetpantotenate Mean Conc., fosmetpantotenate 100 mg/kg oral, 4 hr, mean
  concentration at 4 h: 2.04 nM
[3]; male, Sprague-Dawley, rat, in vivo, 300 mg/kg, Fosmetpantotenate Conc., fosmetpantotenate 300 mg/kg oral, 0.033 hr, individual animals
  concentration at 0.033 h: 3.9 nM
[3]; male, Sprague-Dawley, rat, in vivo, 300 mg/kg, Fosmetpantotenate Conc., fosmetpantotenate 300 mg/kg oral, 1 hr, individual animals
  concentration at 1 h: 6.98 nM
[3]; male, Sprague-Dawley, rat, in vivo, 300 mg/kg, Fosmetpantotenate Conc., fosmetpantotenate 300 mg/kg oral, 2 hr, individual animals
  concentration at 2 h: 3.41 nM
[3]; male, Sprague-Dawley, rat, in vivo, 300 mg/kg, Fosmetpantotenate Conc., fosmetpantotenate 300 mg/kg oral, 4 hr, individual animals
  concentration at 4 h: 3.69 nM
[3]; male, Sprague-Dawley, rat, in vivo, 300 mg/kg, Fosmetpantotenate Mean Conc., fosmetpantotenate 300 mg/kg oral, 0.033 hr, mean
  concentration at 0.033 h: 4.03 nM
[3]; male, Sprague-Dawley, rat, in vivo, 300 mg/kg, Fosmetpantotenate Mean Conc., fosmetpantotenate 300 mg/kg oral, 0.167 hr, mean
  concentration at 0.167 h: 18.1 nM
[3]; male, Sprague-Dawley, rat, in vivo, 300 mg/kg, Fosmetpantotenate Mean Conc., fosmetpantotenate 300 mg/kg oral, 0.33 hr, mean
  concentration at 0.33 h: 36.3 nM
[3]; male, Sprague-Dawley, rat, in vivo, 300 mg/kg, Fosmetpantotenate Mean Conc., fosmetpantotenate 300 mg/kg oral, 0.5 hr, mean
  concentration at 0.5 h: 290 nM
[3]; male, Sprague-Dawley, rat, in vivo, 300 mg/kg, Fosmetpantotenate Mean Conc., fosmetpantotenate 300 mg/kg oral, 1 hr, mean
  concentration at 1 h: 6.98 nM
[3]; male, Sprague-Dawley, rat, in vivo, 300 mg/kg, Fosmetpantotenate Mean Conc., fosmetpantotenate 300 mg/kg oral, 2 hr, mean
  concentration at 2 h: 3.41 nM
[3]; male, Sprague-Dawley, rat, in vivo, 300 mg/kg, Fosmetpantotenate Mean Conc., fosmetpantotenate 300 mg/kg oral, 4 hr, mean
  concentration at 4 h: 3.69 nM
[3]; male, Sprague-Dawley, rat, in vivo, 700 mg/kg, Fosmetpantotenate Conc., fosmetpantotenate 700 mg/kg oral, 2 hr, individual animals
  concentration at 2 hr: 663 nM
[3]; male, Sprague-Dawley, rat, in vivo, 700 mg/kg, Fosmetpantotenate Mean Conc., fosmetpantotenate 700 mg/kg oral, 0.033 hr, mean
  concentration at 0.033 h: 114 nM
[3]; male, Sprague-Dawley, rat, in vivo, 700 mg/kg, Fosmetpantotenate Mean Conc., fosmetpantotenate 700 mg/kg oral, 0.083 hr, mean
  concentration at 0.083 h: 260 nM
[3]; male, Sprague-Dawley, rat, in vivo, 700 mg/kg, Fosmetpantotenate Mean Conc., fosmetpantotenate 700 mg/kg oral, 0.167 hr, mean
  concentration at 0.167 hr: 138 nM
[3]; male, Sprague-Dawley, rat, in vivo, 700 mg/kg, Fosmetpantotenate Mean Conc., fosmetpantotenate 700 mg/kg oral, 0.33 hr, mean
  concentration at 0.33 hr: 1290 nM
[3]; male, Sprague-Dawley, rat, in vivo, 700 mg/kg, Fosmetpantotenate Mean Conc., fosmetpantotenate 700 mg/kg oral, 0.5 hr, mean
  concentration at 0.5 hr: 222 nM
[3]; male, Sprague-Dawley, rat, in vivo, 700 mg/kg, Fosmetpantotenate Mean Conc., fosmetpantotenate 700 mg/kg oral, 1 hr, mean
  concentration at 1 hr: 117 nM
[3]; male, Sprague-Dawley, rat, in vivo, 700 mg/kg, Fosmetpantotenate Mean Conc., fosmetpantotenate 700 mg/kg oral, 2 hr, mean
  concentration at 2 hr: 849 nM
[3]; male, Sprague-Dawley, rat, in vivo, 700 mg/kg, Fosmetpantotenate Mean Conc., fosmetpantotenate 700 mg/kg oral, 4 hr, mean
  concentration at 4 h: 226 nM
